Assay: refractive index (Na D-line) (dimensionless); xn = mol fraction of the nth substance listed
Conditions: 101.32 kPa, Liquid, Standard Abbe refractometry

COCCOCCOCCOC [2,5,8,11-tetraoxadodecane] + CCO
refractive index
Conditions	288.15 K	298.15 K	308.15 K	318.15 K
x1 = 0.0045	1.3641	1.36	1.3559	1.3517
x1 = 0.0085	1.3648	1.3608	1.3567	1.3525
x1 = 0.0125	1.3656	1.3616	1.3575	1.3533
x1 = 0.0165	1.3664	1.3624	1.3583	1.3541
x1 = 0.0205	1.3672	1.3632	1.359	1.3548
x1 = 0.0305	1.3691	1.365	1.3609	1.3567
x1 = 0.05	1.3724	1.3684	1.3644	1.3602
x1 = 0.1	1.3799	1.376	1.372	1.3679
x1 = 0.15	1.3862	1.3823	1.3782	1.3741
x1 = 0.2	1.3915	1.3875	1.3834	1.3794
x1 = 0.25	1.396	1.3919	1.3879	1.3839
x1 = 0.3	1.3998	1.3958	1.3917	1.3877
x1 = 0.35	1.4032	1.3991	1.395	1.391
x1 = 0.4	1.4061	1.402	1.3979	1.3939
x1 = 0.4499	1.4087	1.4046	1.4005	1.3965
x1 = 0.5	1.411	1.4069	1.4028	1.3988
x1 = 0.55	1.4131	1.409	1.4049	1.4008
x1 = 0.6	1.4149	1.4108	1.4067	1.4026
x1 = 0.65	1.4166	1.4125	1.4084	1.4043
x1 = 0.7	1.4181	1.414	1.4099	1.4058
x1 = 0.75	1.4195	1.4154	1.4113	1.4072
x1 = 0.7999	1.4208	1.4167	1.4126	1.4084
x1 = 0.8499	1.422	1.4179	1.4137	1.4096
x1 = 0.8998	1.4231	1.4189	1.4148	1.4106
x1 = 0.9498	1.4241	1.4199	1.4158	1.4116
x1 = 1	1.425	1.4209	1.4167	1.4125

COCCOCCOC [2,5,8-trioxanonane] + CCO
refractive index
Conditions	288.15 K	298.15 K	308.15 K	318.15 K
x1 = 0.0045	1.3636	1.3596	1.3555	1.3514
x1 = 0.0085	1.3641	1.3601	1.356	1.3518
x1 = 0.0125	1.3645	1.3605	1.3565	1.3523
x1 = 0.0165	1.365	1.361	1.3569	1.3528
x1 = 0.0205	1.3655	1.3615	1.3574	1.3532
x1 = 0.0305	1.3666	1.3626	1.3585	1.3543
x1 = 0.05	1.3687	1.3647	1.3606	1.3564
x1 = 0.1	1.3737	1.3696	1.3654	1.3612
x1 = 0.15	1.378	1.3739	1.3697	1.3655
x1 = 0.2	1.3817	1.3776	1.3734	1.3692
x1 = 0.25	1.3851	1.381	1.3767	1.3725
x1 = 0.3	1.3881	1.3839	1.3797	1.3754
x1 = 0.35	1.3907	1.3866	1.3823	1.378
x1 = 0.4	1.3931	1.3889	1.3846	1.3803
x1 = 0.45	1.3953	1.3911	1.3867	1.3824
x1 = 0.4999	1.3973	1.3931	1.3887	1.3843
x1 = 0.55	1.399	1.3948	1.3904	1.3861
x1 = 0.5999	1.4007	1.3965	1.392	1.3877
x1 = 0.65	1.4022	1.398	1.3935	1.3892
x1 = 0.6999	1.4036	1.3993	1.3949	1.3905
x1 = 0.7499	1.4049	1.4006	1.3961	1.3917
x1 = 0.7999	1.406	1.4018	1.3973	1.3929
x1 = 0.8499	1.4072	1.4029	1.3984	1.394
x1 = 0.8998	1.4082	1.4039	1.3994	1.395
x1 = 0.9498	1.4092	1.4049	1.4003	1.3959
x1 = 1	1.4101	1.4058	1.4012	1.3968
